ChEMBL document CHEMBL1909046, “DrugMatrix in vitro pharmacology data”

How the values were obtained:
[1] = DRUGMATRIX: beta-Lactamase enzyme inhibition (substrate: Nitrocefin); parameters: species or system Bacillus cereus; settings: Not Active = under 50% inhibition at 10 µM
[2] = target: T1, Angiotensin-converting enzyme (Oryctolagus cuniculus, UniProt P12822); assay type: tissue-based, Lung;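 note: enzymatic inhibition of angiotensin-converting enzyme measured with FAPGG as the substrate; in other assays of this panel Not Active means under 50% inhibition at 10 µM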
T1 sequence (P12822 whole entry): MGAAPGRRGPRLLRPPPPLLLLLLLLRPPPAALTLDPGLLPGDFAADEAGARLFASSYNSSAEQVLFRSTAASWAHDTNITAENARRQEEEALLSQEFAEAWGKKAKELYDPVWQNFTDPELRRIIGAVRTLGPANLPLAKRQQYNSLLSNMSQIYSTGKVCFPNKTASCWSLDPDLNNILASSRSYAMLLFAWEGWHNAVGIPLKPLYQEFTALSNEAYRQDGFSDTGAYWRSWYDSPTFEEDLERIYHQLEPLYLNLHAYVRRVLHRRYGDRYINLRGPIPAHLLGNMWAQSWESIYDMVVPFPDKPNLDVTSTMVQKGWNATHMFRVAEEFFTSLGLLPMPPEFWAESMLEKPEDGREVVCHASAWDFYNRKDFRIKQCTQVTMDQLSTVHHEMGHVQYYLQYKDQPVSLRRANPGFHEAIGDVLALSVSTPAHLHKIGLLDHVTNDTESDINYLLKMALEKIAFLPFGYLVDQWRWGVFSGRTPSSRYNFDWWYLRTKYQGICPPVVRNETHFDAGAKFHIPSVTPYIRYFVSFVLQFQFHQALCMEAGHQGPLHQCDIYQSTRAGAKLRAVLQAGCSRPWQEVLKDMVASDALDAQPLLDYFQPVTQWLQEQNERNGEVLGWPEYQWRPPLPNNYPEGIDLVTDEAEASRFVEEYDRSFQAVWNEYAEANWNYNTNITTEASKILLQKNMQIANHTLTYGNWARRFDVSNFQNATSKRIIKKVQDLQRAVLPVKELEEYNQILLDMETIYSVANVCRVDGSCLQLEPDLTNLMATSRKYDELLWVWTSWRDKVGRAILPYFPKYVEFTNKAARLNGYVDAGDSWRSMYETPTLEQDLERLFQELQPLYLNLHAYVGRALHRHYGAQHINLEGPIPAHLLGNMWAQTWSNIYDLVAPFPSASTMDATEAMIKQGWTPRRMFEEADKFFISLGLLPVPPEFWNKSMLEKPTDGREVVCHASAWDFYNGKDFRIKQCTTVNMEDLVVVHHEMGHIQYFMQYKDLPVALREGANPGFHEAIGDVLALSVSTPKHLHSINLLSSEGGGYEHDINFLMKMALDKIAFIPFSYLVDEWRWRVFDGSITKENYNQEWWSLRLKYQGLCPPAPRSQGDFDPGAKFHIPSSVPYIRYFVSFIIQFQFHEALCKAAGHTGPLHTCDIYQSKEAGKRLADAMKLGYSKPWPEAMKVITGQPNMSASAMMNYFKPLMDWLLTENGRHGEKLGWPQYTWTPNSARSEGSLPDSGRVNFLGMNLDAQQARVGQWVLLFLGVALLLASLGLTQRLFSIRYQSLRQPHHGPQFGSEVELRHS

Adenosine receptor A1 = target: T2, Adenosine receptor A1 (Homo sapiens, UniProt P30542); assay type: cell membranes, CHO, Membrane; settings: cho;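 note: radioligand binding assay at the adenosine A1 receptor, with DPCPX serving as the labelled ligand; in other assays of this panel Not Active means under 50% inhibition at 10 µM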
T2 sequence (P30542 whole entry): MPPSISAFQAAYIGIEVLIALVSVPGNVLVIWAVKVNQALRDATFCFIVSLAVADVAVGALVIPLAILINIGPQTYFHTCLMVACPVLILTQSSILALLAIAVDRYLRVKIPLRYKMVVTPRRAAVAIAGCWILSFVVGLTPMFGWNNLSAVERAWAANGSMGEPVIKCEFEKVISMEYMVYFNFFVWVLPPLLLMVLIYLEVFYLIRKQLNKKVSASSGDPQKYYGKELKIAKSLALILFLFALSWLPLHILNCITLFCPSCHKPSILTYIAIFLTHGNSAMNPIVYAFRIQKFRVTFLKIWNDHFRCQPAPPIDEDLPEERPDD

Cytochrome P450 2A6 = target: T3, Cytochrome P450 2A6 (Homo sapiens, UniProt P11509); settings: bti-tn-5b1-4; note: in other assays of this panel Not Active means under 50% inhibition at 10 µM
T3 sequence (P11509 whole entry): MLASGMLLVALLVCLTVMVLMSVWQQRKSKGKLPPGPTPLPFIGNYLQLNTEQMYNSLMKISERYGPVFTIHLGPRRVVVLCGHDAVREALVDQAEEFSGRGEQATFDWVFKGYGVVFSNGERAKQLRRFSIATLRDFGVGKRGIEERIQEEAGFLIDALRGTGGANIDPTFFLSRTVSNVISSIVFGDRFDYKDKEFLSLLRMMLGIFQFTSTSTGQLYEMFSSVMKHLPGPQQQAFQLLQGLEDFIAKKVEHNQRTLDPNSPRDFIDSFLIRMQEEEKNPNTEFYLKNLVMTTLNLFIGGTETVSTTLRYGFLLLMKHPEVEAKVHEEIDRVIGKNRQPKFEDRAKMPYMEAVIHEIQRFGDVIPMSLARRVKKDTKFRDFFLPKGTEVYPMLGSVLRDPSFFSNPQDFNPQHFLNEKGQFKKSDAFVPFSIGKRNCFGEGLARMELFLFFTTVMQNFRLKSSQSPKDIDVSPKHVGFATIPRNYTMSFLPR

[3] = DRUGMATRIX: Phosphodiesterase PDE3 enzyme inhibition (substrate: [3H]cAMP + cAMP); assay type: tissue-based, Homo sapiens; settings: platelet; Not Active = under 50% inhibition at 10 µM
[4] = DRUGMATRIX: Calcium Channel Type L, Benzothiazepine radioligand binding (ligand: [3H] Diltiazem); assay type: cell membranes, Rattus norvegicus, Wistar, Brain, Membrane; settings: Not Active = under 50% inhibition at 10 µM
Insulin receptor = Insulin receptor (Rattus norvegicus, UniProt P15127); assay type: cell membranes, Wistar, Liver, Membrane; note: in other assays of this panel Not Active means under 50% inhibition at 10 µM
Chain of Insulin receptor (P15127 27-759 limits assumed): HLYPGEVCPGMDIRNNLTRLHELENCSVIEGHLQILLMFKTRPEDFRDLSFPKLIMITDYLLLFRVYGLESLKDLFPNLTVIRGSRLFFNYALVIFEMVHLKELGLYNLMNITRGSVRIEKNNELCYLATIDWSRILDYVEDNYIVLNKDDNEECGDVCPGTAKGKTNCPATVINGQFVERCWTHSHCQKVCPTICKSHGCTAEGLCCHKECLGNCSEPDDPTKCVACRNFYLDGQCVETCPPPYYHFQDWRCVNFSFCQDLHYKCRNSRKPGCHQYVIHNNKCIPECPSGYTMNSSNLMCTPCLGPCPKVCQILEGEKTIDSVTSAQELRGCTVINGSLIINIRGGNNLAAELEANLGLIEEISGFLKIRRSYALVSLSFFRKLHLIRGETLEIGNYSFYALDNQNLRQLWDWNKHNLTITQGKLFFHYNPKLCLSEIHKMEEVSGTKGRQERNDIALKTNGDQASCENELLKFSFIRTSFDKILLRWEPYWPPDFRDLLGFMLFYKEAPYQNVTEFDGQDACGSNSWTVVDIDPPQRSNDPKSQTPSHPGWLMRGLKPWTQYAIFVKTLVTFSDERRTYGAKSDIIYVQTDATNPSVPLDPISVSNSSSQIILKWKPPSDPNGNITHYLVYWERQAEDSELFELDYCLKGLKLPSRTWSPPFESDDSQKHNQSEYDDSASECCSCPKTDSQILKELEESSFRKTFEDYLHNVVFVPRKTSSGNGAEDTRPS
Chain of Insulin receptor (P15127 764-1383 limits assumed): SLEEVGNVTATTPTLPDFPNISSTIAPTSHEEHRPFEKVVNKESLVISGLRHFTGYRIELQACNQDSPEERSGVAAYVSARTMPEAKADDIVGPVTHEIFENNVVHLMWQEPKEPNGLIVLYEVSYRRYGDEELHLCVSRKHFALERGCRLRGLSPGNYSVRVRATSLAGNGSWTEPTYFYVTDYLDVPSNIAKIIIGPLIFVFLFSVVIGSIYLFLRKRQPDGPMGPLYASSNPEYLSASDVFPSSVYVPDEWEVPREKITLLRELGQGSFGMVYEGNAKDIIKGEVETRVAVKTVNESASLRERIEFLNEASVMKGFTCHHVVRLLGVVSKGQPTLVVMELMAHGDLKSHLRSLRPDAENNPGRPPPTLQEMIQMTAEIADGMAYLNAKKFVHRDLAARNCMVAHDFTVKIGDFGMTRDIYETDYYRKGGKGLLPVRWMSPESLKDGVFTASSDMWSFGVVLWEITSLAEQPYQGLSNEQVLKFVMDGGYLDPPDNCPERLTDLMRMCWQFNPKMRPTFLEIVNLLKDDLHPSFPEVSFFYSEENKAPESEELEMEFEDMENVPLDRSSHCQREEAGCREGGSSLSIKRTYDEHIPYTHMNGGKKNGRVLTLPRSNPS

Leukotriene C4 synthase = target: T4, Leukotriene C4 synthase (Cavia porcellus, UniProt A6XA80); assay type: tissue-based, Lung
T4 sequence (A6XA80 whole entry): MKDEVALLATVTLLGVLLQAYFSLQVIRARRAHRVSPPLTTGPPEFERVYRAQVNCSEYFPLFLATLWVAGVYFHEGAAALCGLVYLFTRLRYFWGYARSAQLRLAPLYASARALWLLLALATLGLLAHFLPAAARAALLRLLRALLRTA

CCCCNc1ccc(C(=O)OCCN(C)C)cc1 [TETRACAINE]
Not Active: IC50 [1] | Ki [1] | IC50 [2] | IC50 (Adenosine receptor A1) | IC50 (Cytochrome P450 2A6) | Ki (Cytochrome P450 2A6) | IC50 [3] | Ki [3] | IC50 [4] | Ki [4] | IC50 (Insulin receptor) | IC50 (Leukotriene C4 synthase)

CS(=O)(=O)c1ccc([C@@H](O)[C@@H](CO)NC(=O)C(Cl)Cl)cc1 [THIAMPHENICOL]
Not Active: IC50 [1] | Ki [1] | IC50 [2] | IC50 (Adenosine receptor A1) | IC50 (Cytochrome P450 2A6) | Ki (Cytochrome P450 2A6) | IC50 [3] | Ki [3] | IC50 [4] | Ki [4] | IC50 (Insulin receptor) | IC50 (Leukotriene C4 synthase)

CCN(CC)CCNC(=O)c1cc(S(C)(=O)=O)ccc1OC [TIAPRIDE]
Not Active: IC50 [1] | Ki [1] | IC50 [2] | IC50 (Adenosine receptor A1) | IC50 (Cytochrome P450 2A6) | Ki (Cytochrome P450 2A6) | IC50 [3] | Ki [3] | IC50 [4] | Ki [4] | IC50 (Insulin receptor) | IC50 (Leukotriene C4 synthase)

Clc1ccccc1CN1CCc2sccc2C1 [TICLOPIDINE]
Not Active: IC50 [1] | Ki [1] | IC50 [2] | IC50 (Adenosine receptor A1) | IC50 (Cytochrome P450 2A6) | Ki (Cytochrome P450 2A6) | IC50 [3] | Ki [3] | IC50 [4] | Ki [4] | IC50 (Insulin receptor) | IC50 (Leukotriene C4 synthase)

NC1CCN(c2nc3c(cc2F)c(=O)c(C(=O)O)cn3-c2ccc(F)cc2F)C1 (stereo unspecified) [TOSUFLOXACIN]
Not Active: IC50 [1] | Ki [1] | IC50 [2] | IC50 (Adenosine receptor A1) | IC50 (Cytochrome P450 2A6) | Ki (Cytochrome P450 2A6) | IC50 [3] | Ki [3] | IC50 [4] | Ki [4] | IC50 (Insulin receptor) | IC50 (Leukotriene C4 synthase)

O=C(Nc1ccc(Br)cc1)c1cc(Br)cc(Br)c1O [TRIBROMSALAN]
Not Active: IC50 [1] | Ki [1] | IC50 [2] | IC50 (Adenosine receptor A1) | IC50 (Cytochrome P450 2A6) | Ki (Cytochrome P450 2A6) | IC50 [3] | Ki [3] | IC50 [4] | Ki [4] | IC50 (Insulin receptor) | IC50 (Leukotriene C4 synthase)

CC(c1cc2ccccc2s1)N(O)C(N)=O (stereo unspecified) [ZILEUTON]
Not Active: IC50 [1] | Ki [1] | IC50 [2] | IC50 (Adenosine receptor A1) | IC50 (Cytochrome P450 2A6) | Ki (Cytochrome P450 2A6) | IC50 [3] | Ki [3] | IC50 [4] | Ki [4] | IC50 (Insulin receptor) | IC50 (Leukotriene C4 synthase)

MANGANESE CHLORIDE ANHYDROUS
Not Active: IC50 [1] | Ki [1] | IC50 [2] | Ki [2] | IC50 (Adenosine receptor A1) | Ki (Adenosine receptor A1) | IC50 (Cytochrome P450 2A6) | Ki (Cytochrome P450 2A6) | IC50 [3] | Ki [3] | IC50 [4] | Ki [4] | IC50 (Insulin receptor) | Ki (Insulin receptor) | IC50 (Leukotriene C4 synthase) | Ki (Leukotriene C4 synthase)

SODIUM ORTHOVANAD
Not Active: IC50 [1] | Ki [1] | IC50 [2] | Ki [2] | IC50 (Adenosine receptor A1) | Ki (Adenosine receptor A1) | IC50 (Cytochrome P450 2A6) | Ki (Cytochrome P450 2A6) | IC50 [3] | Ki [3] | IC50 [4] | Ki [4] | IC50 (Insulin receptor) | Ki (Insulin receptor) | IC50 (Leukotriene C4 synthase) | Ki (Leukotriene C4 synthase)
